PMC2699670 (Anesthesiology, 2009)
One block for each molecule: values may come before it.

Columns and labels:
rat Nav1.4 α-subunit [1] = biological target: T1, rat Nav1.4 α-subunit (Rattus norvegicus, UniProt P15390); assay: whole-cell patch clamp, peak INa; type: cell-based
rat Nav1.4 α-subunit [2] = biological target: T1, rat Nav1.4 α-subunit; assay: whole-cell patch clamp, peak INa; type: cell-based; remark: listed apart in the source

T1 sequence (P15390 whole entry): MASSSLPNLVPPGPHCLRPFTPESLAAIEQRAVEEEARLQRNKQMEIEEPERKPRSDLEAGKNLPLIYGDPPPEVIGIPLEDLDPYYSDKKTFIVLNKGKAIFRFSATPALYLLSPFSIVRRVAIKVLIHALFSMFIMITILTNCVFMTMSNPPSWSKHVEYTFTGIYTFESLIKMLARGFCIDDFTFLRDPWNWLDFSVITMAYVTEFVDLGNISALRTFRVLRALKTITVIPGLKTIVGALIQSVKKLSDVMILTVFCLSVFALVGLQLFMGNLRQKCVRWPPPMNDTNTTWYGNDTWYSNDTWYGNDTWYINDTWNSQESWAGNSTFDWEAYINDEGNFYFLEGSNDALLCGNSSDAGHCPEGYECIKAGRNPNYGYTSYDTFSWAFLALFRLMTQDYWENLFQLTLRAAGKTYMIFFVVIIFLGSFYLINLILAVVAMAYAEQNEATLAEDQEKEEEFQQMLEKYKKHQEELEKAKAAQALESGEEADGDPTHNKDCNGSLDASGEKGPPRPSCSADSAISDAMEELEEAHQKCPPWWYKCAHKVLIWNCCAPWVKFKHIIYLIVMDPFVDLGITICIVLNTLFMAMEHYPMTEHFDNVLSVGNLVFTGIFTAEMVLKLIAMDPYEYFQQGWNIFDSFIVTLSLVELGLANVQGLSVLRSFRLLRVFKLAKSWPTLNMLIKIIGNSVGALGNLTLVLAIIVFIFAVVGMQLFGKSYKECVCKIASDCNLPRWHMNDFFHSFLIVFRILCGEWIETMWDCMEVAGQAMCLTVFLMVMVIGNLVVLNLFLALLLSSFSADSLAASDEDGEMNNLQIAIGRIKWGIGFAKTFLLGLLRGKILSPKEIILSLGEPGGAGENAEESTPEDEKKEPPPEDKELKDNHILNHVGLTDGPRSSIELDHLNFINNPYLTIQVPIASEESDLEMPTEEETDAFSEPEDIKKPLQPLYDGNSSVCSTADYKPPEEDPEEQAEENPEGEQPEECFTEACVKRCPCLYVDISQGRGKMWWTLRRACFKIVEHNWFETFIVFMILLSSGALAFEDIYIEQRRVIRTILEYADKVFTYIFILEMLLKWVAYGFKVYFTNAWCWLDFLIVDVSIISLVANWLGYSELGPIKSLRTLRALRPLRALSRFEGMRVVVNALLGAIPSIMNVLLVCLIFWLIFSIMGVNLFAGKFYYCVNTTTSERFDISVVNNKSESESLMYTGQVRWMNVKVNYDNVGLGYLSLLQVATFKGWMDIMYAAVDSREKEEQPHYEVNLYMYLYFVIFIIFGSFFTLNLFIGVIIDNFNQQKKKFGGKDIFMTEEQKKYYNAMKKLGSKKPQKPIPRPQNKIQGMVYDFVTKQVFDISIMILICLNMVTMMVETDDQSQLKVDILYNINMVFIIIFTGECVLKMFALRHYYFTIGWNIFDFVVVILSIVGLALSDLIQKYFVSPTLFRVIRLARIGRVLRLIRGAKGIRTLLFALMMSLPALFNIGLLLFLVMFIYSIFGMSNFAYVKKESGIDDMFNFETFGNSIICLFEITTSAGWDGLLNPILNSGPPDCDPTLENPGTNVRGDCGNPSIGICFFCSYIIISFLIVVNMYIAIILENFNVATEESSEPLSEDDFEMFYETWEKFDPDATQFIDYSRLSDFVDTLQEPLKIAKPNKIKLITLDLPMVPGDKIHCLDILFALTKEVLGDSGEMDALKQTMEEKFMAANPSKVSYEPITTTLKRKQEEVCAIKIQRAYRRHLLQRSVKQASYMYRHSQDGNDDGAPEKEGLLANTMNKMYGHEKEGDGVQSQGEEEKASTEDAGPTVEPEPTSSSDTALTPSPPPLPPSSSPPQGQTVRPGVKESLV

SMILES: FC(F)OC(F)(F)C(F)Cl (centres unmarked) [enflurane]
inhibition at 820 µM (rat Nav1.4 α-subunit [1]; read-out: % inhibition at 0.82 mM): 32 ± 6.7%

inhibition at 420 µM (rat Nav1.4 α-subunit [1]; read-out: % inhibition at 0.42 mM): 32 ± 3.5%
SMILES: FC(F)(F)C(Cl)Br (centres unmarked) [halothane]

inhibition at 460 µM (rat Nav1.4 α-subunit [1]; read-out: % inhibition at 0.46 mM): 19 ± 1.9%
IC50 (rat Nav1.4 α-subunit [2]): 1160 µM
SMILES: FC(F)OC(Cl)C(F)(F)F (centres unmarked) [isoflurane]

inhibition at 440 µM (rat Nav1.4 α-subunit [1]; read-out: % inhibition at 0.44 mM): 17 ± 3.3%
SMILES: FCOC(C(F)(F)F)C(F)(F)F [sevoflurane]
